The values below come from PMC6401477, “Quorum Sensing Signal Selectivity and the Potential for Interspecies Cross Talk” (mBio, 2019).

Common to all, as to test: cell-based
The target in one assay is T1, CviR (Chromobacterium violaceum, UniProt D3W065).
T1 construct: Violacein was used as a measure of CviR activity in C. violaceum (CV026); endogenous in cells; host or cells: C. violaceum CV026
The note with it: C. violaceum CV026, violacein; read-out: EC50 CviR in native host.

The target of assay [1] is T2, BtaR1 (Burkholderia thailandensis, UniProt Q2T543).
T2 sequence (Q2T543 1-239): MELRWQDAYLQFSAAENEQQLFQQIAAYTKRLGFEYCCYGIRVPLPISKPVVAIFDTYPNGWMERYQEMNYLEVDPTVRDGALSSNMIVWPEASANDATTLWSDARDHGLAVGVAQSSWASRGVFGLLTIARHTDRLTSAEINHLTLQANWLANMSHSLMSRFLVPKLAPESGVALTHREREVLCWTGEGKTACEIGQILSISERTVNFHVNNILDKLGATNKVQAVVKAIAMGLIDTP
Set-up: species or system B. thailandensis.

The target of assay [2] is T3, QscR (Pseudomonas aeruginosa, UniProt G3XD77).
T3 construct: expressed in transfected cells; host or cells: E. coli 5α (DH5α) with pJNQ and pPROBE-PPA1897
T3 sequence (G3XD77 1-237): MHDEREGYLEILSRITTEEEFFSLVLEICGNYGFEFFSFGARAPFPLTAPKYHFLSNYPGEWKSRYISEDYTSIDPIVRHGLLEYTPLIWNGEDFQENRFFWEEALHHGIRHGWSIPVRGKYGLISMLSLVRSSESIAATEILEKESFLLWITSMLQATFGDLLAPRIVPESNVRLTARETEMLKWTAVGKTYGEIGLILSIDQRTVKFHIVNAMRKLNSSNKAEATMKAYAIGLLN
To be noted: P. aeruginosa PAO-SC4 (pPROBE-PPA1897); read-out: EC50 QscR in native host.

For assay [3], the target named is T4, BtaR2 (Burkholderia thailandensis, UniProt Q2T5X2).
T4 sequence (Q2T5X2 1-234): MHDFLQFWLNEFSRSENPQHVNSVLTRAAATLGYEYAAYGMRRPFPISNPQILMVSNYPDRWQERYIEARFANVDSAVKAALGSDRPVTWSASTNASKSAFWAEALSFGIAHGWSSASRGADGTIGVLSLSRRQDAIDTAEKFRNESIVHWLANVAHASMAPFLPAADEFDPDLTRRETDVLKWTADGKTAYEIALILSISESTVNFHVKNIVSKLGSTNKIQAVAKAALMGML
Further details: species or system B. thailandensis.

Another assay concerns the target T5, LuxR (Aliivibrio fischeri, UniProt P12746).
T5 construct: endogenous in cells; host or cells: V. fischeri MJ215
T5 sequence (P12746 1-250): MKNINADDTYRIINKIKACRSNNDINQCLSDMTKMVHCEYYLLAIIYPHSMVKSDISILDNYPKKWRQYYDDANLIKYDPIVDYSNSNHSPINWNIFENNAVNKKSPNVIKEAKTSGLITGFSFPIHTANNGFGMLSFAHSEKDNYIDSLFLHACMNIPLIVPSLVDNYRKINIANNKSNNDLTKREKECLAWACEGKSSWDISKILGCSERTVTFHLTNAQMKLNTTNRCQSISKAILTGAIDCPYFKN
The note with it: V. fischeri MJ215, luminescence; read-out: EC50 LuxR in native host.

Assay [4] addresses T2, BtaR1. Set-up: species or system B. thailandensis. The source holds these as a separate data set.
The target in assay [5] is T6, LasR (Pseudomonas aeruginosa, UniProt P25084).
T6 construct: expressed in transfected cells; host or cells: E. coli 5α (DH5α) with pJNL and pPROBE-PrsaL
T6 sequence (P25084 1-239): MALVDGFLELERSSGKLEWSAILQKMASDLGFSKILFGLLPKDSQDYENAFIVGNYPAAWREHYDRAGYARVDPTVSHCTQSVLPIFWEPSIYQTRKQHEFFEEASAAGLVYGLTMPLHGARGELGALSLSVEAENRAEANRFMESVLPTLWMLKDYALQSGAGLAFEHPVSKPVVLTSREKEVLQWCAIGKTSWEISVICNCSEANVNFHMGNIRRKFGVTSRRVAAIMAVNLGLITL
Further details: species or system P. aeruginosa. The note with it: receptor expressed in E. coli (DH5α), arabinose-induced.

The target of assay [6] is T6, LasR. The note with it: P. aeruginosa PAO-SC4 (pPROBE-PrsaL); mean ± SEM, n ≥ 3; read-out: EC50 LasR in native host.
The target of assay [7] is T3, QscR. Further details: species or system P. aeruginosa. To be noted: receptor expressed in E. coli (DH5α), arabinose-induced.
The target of a further assay is T7, RhlR (Pseudomonas aeruginosa, UniProt P54292).
T7 sequence (P54292 1-241): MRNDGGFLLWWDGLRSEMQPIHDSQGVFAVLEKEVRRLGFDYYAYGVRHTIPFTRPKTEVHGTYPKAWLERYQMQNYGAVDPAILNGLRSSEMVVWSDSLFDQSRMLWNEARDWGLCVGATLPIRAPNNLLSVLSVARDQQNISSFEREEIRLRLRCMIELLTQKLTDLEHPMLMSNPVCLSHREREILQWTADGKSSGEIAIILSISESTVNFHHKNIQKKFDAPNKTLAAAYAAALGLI
Format: cell-based, P. aeruginosa. The note with it: for EC50: receptor expressed in E. coli (DH5α), arabinose-induced.

Assay [8] has as its target T4, BtaR2. Set-up: species or system B. thailandensis. The source holds these as a separate data set.

Each structure is given as a SMILES string. Values joined by “and” are separate entries in the source; they are usually repeats but may differ in a detail not shown here. Identical values can stand only once. Like-named read-outs stand apart in the source and are kept apart here.

In the case of `CCCC(=O)CC(=O)N[C@H]1CCOC1=O` [3OC6-HSL], the EC50 was 0.98 ± 0.26 µM on CviR; more than 100 µM on BtaR1 [1]; more than 100 µM at QscR [2]; more than 100 µM at BtaR2 [3]; 0.272 µM and 0.27 µM on LuxR; more than 100 µM at BtaR1 [4].

As to `CCCCCC(=O)CC(=O)N[C@H]1CCOC1=O` [3OC8-HSL], the EC50 on CviR amounted to 5.47 ± 0.27 µM; on LuxR it was 0.49 ± 0.11 µM; at LasR [5], 17.4 ± 6.5 µM; at BtaR1 [4], 1.1 ± 0.29 µM; at LasR [6] it was 59.1 ± 7.5 µM.

Consider `CCCCCCCC(=O)CC(=O)N[C@H]1CCOC1=O` [3OC10-HSL], for which the 50% effective concentration (EC50) is more than 100 µM on CviR; 0.26 ± 0.16 µM at QscR [7]; 4 ± 0.51 µM on LuxR; more than 100 µM on RhlR; 0.21 ± 0.06 µM on LasR [5]; 2.83 ± 1.61 µM on BtaR1 [4].

As to `CCCCCCCCCC(=O)CC(=O)N[C@H]1CCOC1=O` [3OC12-HSL, N-3-oxo-dodecanoyl-L-homoserine lactone], the figures for the EC50 at CviR, on LuxR and at RhlR were more than 100 µM, 7.1 ± 2 µM and more than 100 µM, respectively. Also, the “effect on RhlR activity in E. coli” value on RhlR (AHL 100 µM (Fig. S3)) is “does not affect”.

For the compound `CCCCCCCCCCCC(=O)CC(=O)N[C@H]1CCOC1=O` [3OC14-HSL, N-3-oxotetradecanoyl-L-homoserine lactone], the EC50 on CviR was more than 100 µM; on BtaR1 [1], more than 100 µM; on LuxR, more than 100 µM; on RhlR it was more than 100 µM; at LasR [5] it was 0.0125 ± 0.0045 µM; at BtaR1 [4], 1.26 ± 0.25 µM. In addition, the EC50 on LasR [6] came to 2.35 ± 0.66 µM.

Take `CCCCCCCCCCCCCC(=O)CC(=O)N[C@H]1CCOC1=O` [3OC16-HSL]: the EC50 at CviR is more than 100 µM; on BtaR1 [1], more than 100 µM; on QscR [7], 0.17 ± 0.07 µM; on QscR [2], more than 100 µM; on LuxR it was more than 100 µM; on RhlR, more than 100 µM. In addition, the EC50 amounted to 0.13 ± 0.03 µM on LasR [5], 1.37 ± 0.27 µM on BtaR1 [4] and 7.05 ± 1.88 µM on LasR [6].

Regarding `CC(O)CC(=O)N[C@H]1CCOC1=O` (stereo partly drawn) [3OHC4-HSL], the EC50 on CviR is more than 100 µM; at BtaR1 [1], more than 100 µM; at QscR [7] it was more than 100 µM; on QscR [2] it was more than 100 µM; at BtaR2 [3] it was 25 ± 2.6 µM; on LuxR, more than 100 µM. For the same compound, the EC50 at RhlR, at LasR [5] and on LasR [6] was more than 100 µM in each case.

For the compound `CCCC(O)CC(=O)N[C@H]1CCOC1=O` (stereo partly drawn) [3OHC6-HSL], the half-maximal effective concentration (EC50) at BtaR1 [1], on QscR [7], on QscR [2], at RhlR, on LasR [5] and at BtaR1 [4] was more than 100 µM throughout. The 50% effective concentration (EC50) at LasR [6] was more than 100 µM.

Take `CCCCCC(O)CC(=O)N[C@H]1CCOC1=O` (stereo partly drawn) [3OHC8-HSL, N-3-hydroxyoctanoyl-L-homoserine lactone]: the half-maximal effective concentration (EC50) at CviR is 21.2 ± 6.6 µM; at QscR [7], 5.82 ± 1.49 µM; at QscR [2] it was more than 100 µM; at LuxR it was more than 100 µM; at RhlR, more than 100 µM; on LasR [6], more than 100 µM.

Take `CCCCCCCC(O)CC(=O)N[C@H]1CCOC1=O` (stereo partly drawn) [3OHC10-HSL]: the EC50 at QscR [7] was 0.0299 ± 0.0134 µM; at LuxR, more than 100 µM; at RhlR, more than 100 µM; on LasR [5] it was 7.91 ± 0.45 µM; on BtaR1 [4], 1.82 ± 0.07 µM.

Consider `CCCCCCCCCC(O)CC(=O)N[C@H]1CCOC1=O` (stereo partly drawn) [3OHC12-HSL], for which the EC50 at CviR was more than 100 µM; at QscR [7] it was 0.11 ± 0.05 µM; at QscR [2], 23.9 ± 9.2 µM; on BtaR2 [3] it was 0.0915 ± 0.0252 µM; on LuxR, more than 100 µM; at RhlR, more than 100 µM. The concentration for a half-maximal effect (EC50) at LasR [5] came out at 1.23 ± 0.86 µM; on LasR [6], 48.4 ± 13.2 µM.

Turning to `CCCCCCCCCCCC(O)CC(=O)N[C@H]1CCOC1=O` (stereo partly drawn) [3OHC14-HSL], the EC50 at CviR is more than 100 µM; on BtaR1 [1] it was more than 100 µM; at QscR [7], 0.15 ± 0.04 µM; on LuxR, more than 100 µM; on RhlR, more than 100 µM; on LasR [5], 0.2 ± 0.02 µM. For the same compound, the figures for the EC50 at BtaR1 [4] and at LasR [6] were 2.23 ± 0.73 µM and 2.66 ± 0.68 µM, respectively.

`CCCCCC(=O)N[C@H]1CCOC1=O` [C6-HSL]: the EC50 on CviR is 0.0834 ± 0.0245 µM; on QscR [2], more than 100 µM; on BtaR2 [3] it was more than 100 µM; at RhlR, 134 ± 26 µM; on LasR [5], more than 100 µM; at LasR [6] it was more than 100 µM.

In the case of `CCCCCCCC(=O)N[C@H]1CCOC1=O` [C8-HSL], the EC50 was 1.66 ± 0.92 µM on CviR; 1.9 ± 0.27 µM at QscR [7]; more than 100 µM on QscR [2]; 13.9 ± 2.1 µM at BtaR2 [8]; more than 100 µM on LasR [6].

As for `CCCCCCCCCC(=O)N[C@H]1CCOC1=O` [C10-HSL, N-decanoyl-L-homoserine lactone], the EC50 on CviR was more than 100 µM; at LuxR it was 42 ± 7.6 µM; at RhlR, more than 100 µM; at LasR [5], 8.67 ± 1.49 µM.

For `CCCCCCCCCCCC(=O)N[C@H]1CCOC1=O` [C12-HSL], the 50% effective concentration (EC50) at CviR is more than 100 µM; on LuxR it was more than 100 µM; at RhlR it was more than 100 µM; at LasR [5], 0.66 ± 0.07 µM.

With `CCCCCCCCCCCCCC(=O)N[C@H]1CCOC1=O` [C14-HSL], the EC50 at CviR is more than 100 µM; on QscR [7] it was 0.0896 ± 0.0201 µM; at QscR [2], more than 100 µM; on LuxR, more than 100 µM; on RhlR, more than 100 µM; on LasR [5] it was 0.36 ± 0.13 µM. The compound also yielded a 50% effective concentration (EC50) at BtaR1 [4] of 0.97 ± 0.35 µM.

Take `CCCCCCCCCCCCCCCC(=O)N[C@H]1CCOC1=O` [C16-HSL]: the EC50 at CviR, at QscR [7], at QscR [2], at BtaR2 [3], on LuxR and at RhlR was more than 100 µM in each case. For the same compound, the EC50 at BtaR2 [8] and on LasR [6] was more than 100 µM throughout.

One may read the EC50 as the midpoint of the concentration-response curve.
